Test results: patent publication US20100003191A1, “AURONE DERIVATIVE-CONTAINING COMPOSITION FOR DIAGNOSIS” (NAGASAKI UNIVERSITY, priority 2006, published 2010)
Values belong to the compound of their own block, whether it stands above or below them.

How the values were obtained:
[1] = target: T1, Aβ(1-42) aggregate (Homo sapiens, UniProt P05067); test: In vitro binding experiment of [125I]-labeled aurone derivatives using Aβ(1-42) aggregates; settings: [125I]-labeled compounds, Ab(1-42) aggregates; for intensity of the binding property to Ab aggregates (order): radioactivity remaining on filter, FIG. 4
T1 construct: Amyloid (3 protein (Human, 1-42) [TFA form] was purchased from Peptide Institute, Inc); purchased Peptide Institute, Inc
Method: Aβ aggregates were prepared by dissolving in a buffer containing 10 mM sodium phosphate and 1 mM EDTA (pH 7.4) at a concentration of 0.5 mg/mL and incubating at 37° C. for 42 h. The binding experiment was performed using 12×75 mm borosilicate glass tubes. [^125I]IMPY used for comparison was prepared according to the method described previously (Zhuang Z P, Kung M P, Wilson A, Lee C W, Plossi K, Hou C, Holzman D M, Kung H F. Structure-activity relationship of imidazo[1,2-a]pyridines as ligands for detecting β-amyloid plaques in the brain. J. Med. Chem. 2003, 46(2): 237-43). 900 μL of 10% ethanol solution, 50 μL of [^125I]-labeled aurone derivative with various concentrations (in 10% aqueous ethanol) or 50 μL of [^125I]IMPY, and 50 μL (29 nM) of an Aβ(1-42) aggregate solution were mixed, and the mixture was allowed to stand at room temperature for 3 h. Aβ3 aggregate-bound aurone derivative and nonbound aurone derivative were separated with a Brandel M-24R cell harvester using Whatman GF/B filters. The radioactivities of substances remaining on the filter used for filtration were measured with a γ counter.
FIGS. 4 and 5 show the results of experiments in which aurone derivatives were reacted in the presence and absence of Ab aggregates; the reaction mixture was filtered with a cell harvester; and the remaining radioactivity on the filter was measured. […] The intensity of the binding property increased in the following order: [^125I] Compound 7>[^125I] Compound 12=[^125I] IMPY>[^125I] Compound 14=[^125I] Compound 17>[^125I] Compound 20 (FIG. 4). The binding property to Ab aggregates of those compounds with —NH2, OMe- and OH group in their side chains are lower than the binding property of [^125] IMPY. On the other hand, those compounds with NHMe- and NMe2 group show equal or higher binding property to Ab aggregates compared to the binding property of [^125I] IMPY. […] Among all, the binding of Compound 7 to Ab aggregates was equal or more than the binding of [^125I] IMPY which is clinically tested at present. Therefore, it has become clear that this compound satisfies a critical requirement as an imaging probe for amyloid β.

[2] = In vivo radioactivity distribution experiment of 125I-labeled aurone derivatives in normal mice (Example 2, Table 15); settings: tail vein
Method: (§1) Animals were decapitated at 2, 10, 30 or 60 min after the injection, and the blood was collected. Then, major organs were removed, and weights and radioactivities thereof were measured.
(§2) In vivo radioactivity distribution experiments of ^125I-labeled aurone derivatives were performed using 5-week-old normal mice.

[3] = male, ddY, mouse, in vivo, 2 min
Method: as §1, §2

[4] = target: T2, Ab(1-42) aggregates (Homo sapiens, UniProt P05067); test: Binding inhibition experiment using Ab(1-42) aggregates, inhibition constants (Ki), radioligand [125I](Z)-2-(4-aminobenzylidene)-5-iodobenzofuran-3(2H)-one (Table 14); settings: Aβ42 aggregates
T2 construct: Ab(1-42) was dissolved in 10 mM phosphate buffer containing 1 mM EDTA (pH 7.4)
Method: Ab(1-42) was dissolved in 10 mM phosphate buffer containing 1 mM EDTA (pH 7.4) to give a concentration of 0.25 mg/mL, and the mixture was incubated at 37° C. for 42 h to thereby prepare Ab(1-42) aggregates.
[…] of 10% EtOH solution, […] of a solution of [^125I](Z)-2-(4-aminobenzylidene)-5-iodobenzofuran-3(2H)-one in 10% ethanol, and […] of a sample solution at various concentrations ([…]) were mixed. Finally, […] of Ab(1-42) aggregate solution was added thereto, and the mixture was allowed to stand at room temperature for 3 h. Ab(1-42) aggregate-bound compounds and nonbound compounds were separated with a Brandel M-24R cell harvester using a Whatman GF/B filter. Radioactivities remaining on the filter were measured with a γ-counter, and inhibition curves were created using Graph Pad Prism 4.0 to calculate inhibition constants (Ki values).
In order to calculate inhibition constants (Ki values) for various aurone derivatives synthesized, binding inhibition experiments were performed using [^125I](Z)-2-(4-aminobenzylidene)-5-iodobenzofuran-3(2H)-one as a radioactive ligand. […] Thus, aurone derivatives have shown a high binding property to amyloid aggregates. No difference in binding property resulting from the length of introduced ethyleneoxy chains was observed.

[5] = In vivo radioactivity biodistribution experiment in normal mice (Example 1, Table 13); design: species or system ddY mice
Method: ^125I-labeled compounds were diluted with 10% ethanol-containing physiological saline. […] After their blood was collected, organs were removed, and the weights and radioactivities thereof were measured.
When any of the aurone derivatives was used, sufficient radioactivity to perform imaging of intracerebral amyloid migrated to the brain from the early stage of injection (1.7-4.6% ID/g). […] It was also shown that, in any of the aurone derivatives, in vivo radioactivity behavior is discharged mainly from the liver to the bile duct and the intestinal tract.

T1 sequence (P05067 672-713 limits assumed): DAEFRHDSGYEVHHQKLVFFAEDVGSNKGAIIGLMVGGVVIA
T2 sequence (P05067 672-713 limits assumed): as above

intensity of the binding property to Ab aggregates (order) [1]: [^125I] Compound 14=[^125I] Compound 17
Structure (SMILES): Nc1ccc(/C=C2\Oc3ccc(I)cc3C2=O)cc1 [Compound 14, 5-iodo-4′-aminoauron]

intensity of the binding property to Ab aggregates (order) [1]: [^125I] Compound 17>[^125I] Compound 20
Structure (SMILES): COc1ccc(/C=C2\Oc3ccc(I)cc3C2=O)cc1 [Compound 17, 5-iodo-4′-methoxyaurone]

Radioactivity distribution, Blood, Mean ([2]; 2 min after injection): 4.75 % ID/g
Radioactivity distribution, Blood, Mean ([2]; 10 min after injection): 2.70 % ID/g
Radioactivity distribution, Blood, Mean ([2]; 30 min after injection): 1.13 % ID/g
Radioactivity distribution, Blood, Mean ([2]; 60 min after injection): 0.55 % ID/g
Radioactivity distribution, Brain, Mean ([2]; 2 min after injection): 2.81 % ID/g
Radioactivity distribution, Brain, Mean ([2]; 10 min after injection): 0.84 % ID/g
Radioactivity distribution, Brain, Mean ([2]; 30 min after injection): 0.18 % ID/g
Radioactivity distribution, Brain, Mean ([2]; 60 min after injection): 0.08 % ID/g
Structure (SMILES): O=C1/C(=C/c2ccc(OCCOCCOCCO)cc2)Oc2ccc([125I])cc21 [[125I]28]

Structure (SMILES): CN(C)c1ccc(-c2cn3cc([125I])ccc3n2)cc1 [[^125I] IMPY, reference compound]
intensity of the binding property to Ab aggregates (order) [1]: [^125I] IMPY>[^125I] Compound 14

migration of radioactivity to the brain [3]: 2.4-4.5 % ID/g
Ki [4]: 3.36 ± 0.29 nM
Structure (SMILES): O=C1/C(=C/c2ccc(OCCOCCO)cc2)Oc2ccc(I)cc21 [Compound 27, (Z)-2-(4-(2-(2-hydroxyethoxy)ethoxy)benzylidene)-5-iodobenzofuran-3(2H)-one]

Radioactivity distribution, Blood, Mean ([2]; 2 min after injection): 4.97 % ID/g
Radioactivity distribution, Blood, Mean ([2]; 10 min after injection): 3.88 % ID/g
Radioactivity distribution, Blood, Mean ([2]; 30 min after injection): 2.38 % ID/g
Radioactivity distribution, Blood, Mean ([2]; 60 min after injection): 1.24 % ID/g
Radioactivity distribution, Brain, Mean ([2]; 2 min after injection): 4.51 % ID/g
Radioactivity distribution, Brain, Mean ([2]; 10 min after injection): 1.49 % ID/g
Radioactivity distribution, Brain, Mean ([2]; 30 min after injection): 0.24 % ID/g
Radioactivity distribution, Brain, Mean ([2]; 60 min after injection): 0.09 % ID/g
Structure (SMILES): O=C1/C(=C/c2ccc(OCCO)cc2)Oc2ccc([125I])cc21 [[125I]26]

intensity of the binding property to Ab aggregates (order) [1]: >[^125I] Compound 20
Structure (SMILES): O=C1/C(=C/c2ccc(O)cc2)Oc2ccc(I)cc21 [Compound 20, 5-iodo-4′-hydroxyaurone]

intensity of the binding property to Ab aggregates (order) [1]: [^125I] Compound 12=[^125I] IMPY
Structure (SMILES): CNc1ccc(/C=C2\Oc3ccc(I)cc3C2=O)cc1 [Compound 12, 5-iodo-4′-methylaminoaurone]

migration of radioactivity to the brain [3]: 2.4-4.5 % ID/g
Ki [4]: 2.56 ± 0.31 nM
Structure (SMILES): O=C1/C(=C/c2ccc(OCCOCCOCCO)cc2)Oc2ccc(I)cc21 [Compound 28, (Z)-2-(4-(2-(2-(2-hydroxyethoxy)ethoxy)ethoxy)benzylidene)-5-iodobenzofuran-3(2H)-one]

intensity of the binding property to Ab aggregates (order) [1]: [^125I] Compound 7>[^125I] Compound 12
Structure (SMILES): CN(C)c1ccc(/C=C2\Oc3ccc(I)cc3C2=O)cc1 [Compound 7, 5-iodo-4′-dimethylaminoaurone]
binding property to Ab aggregates compared with [125I]IMPY [1]: equal or more than the binding of [^125I] IMPY

Radioactivity distribution, Blood, Mean ([2]; 2 min after injection): 3.61 % ID/g
Radioactivity distribution, Blood, Mean ([2]; 10 min after injection): 5.18 % ID/g
Radioactivity distribution, Blood, Mean ([2]; 30 min after injection): 1.11 % ID/g
Radioactivity distribution, Blood, Mean ([2]; 60 min after injection): 0.68 % ID/g
Radioactivity distribution, Brain, Mean ([2]; 2 min after injection): 3.69 % ID/g
Radioactivity distribution, Brain, Mean ([2]; 10 min after injection): 1.53 % ID/g
Radioactivity distribution, Brain, Mean ([2]; 30 min after injection): 0.38 % ID/g
Radioactivity distribution, Brain, Mean ([2]; 60 min after injection): 0.16 % ID/g
Structure (SMILES): O=C1/C(=C/c2ccc(OCCOCCO)cc2)Oc2ccc([125I])cc21 [[125I]27]

Biodistribution of radioactivity, Blood ([5]; 2 min after injection): 3.16 (0.82) % injected dose per gram
Biodistribution of radioactivity, Blood ([5]; 10 min after injection): 1.51 (0.23) % injected dose per gram
Biodistribution of radioactivity, Blood ([5]; 30 min after injection): 0.95 (0.19) % injected dose per gram
Biodistribution of radioactivity, Blood ([5]; 60 min after injection): 0.70 (0.60) % injected dose per gram
Biodistribution of radioactivity, Brain ([5]; 2 min after injection): 1.69 (0.43) % injected dose per gram
Biodistribution of radioactivity, Brain ([5]; 10 min after injection): 0.54 (0.12) % injected dose per gram
Biodistribution of radioactivity, Brain ([5]; 30 min after injection): 0.11 (0.05) % injected dose per gram
Biodistribution of radioactivity, Brain ([5]; 60 min after injection): 0.03 (0.02) % injected dose per gram
Biodistribution of radioactivity, Heart ([5]; 2 min after injection): 3.84 (1.04) % injected dose per gram
Biodistribution of radioactivity, Heart ([5]; 10 min after injection): 1.06 (0.10) % injected dose per gram
Biodistribution of radioactivity, Heart ([5]; 30 min after injection): 0.37 (0.09) % injected dose per gram
Biodistribution of radioactivity, Heart ([5]; 60 min after injection): 0.25 (0.12) % injected dose per gram
Biodistribution of radioactivity, Intestine ([5]; 2 min after injection): 1.59 (0.51) % injected dose per gram
Biodistribution of radioactivity, Intestine ([5]; 10 min after injection): 4.70 (1.46) % injected dose per gram
Biodistribution of radioactivity, Intestine ([5]; 30 min after injection): 11.67 (3.56) % injected dose per gram
Biodistribution of radioactivity, Intestine ([5]; 60 min after injection): 9.02 (3.14) % injected dose per gram
Biodistribution of radioactivity, Kidney ([5]; 2 min after injection): 7.26 (2.18) % injected dose per gram
Biodistribution of radioactivity, Kidney ([5]; 10 min after injection): 7.00 (1.49) % injected dose per gram
Biodistribution of radioactivity, Kidney ([5]; 30 min after injection): 4.93 (1.52) % injected dose per gram
Biodistribution of radioactivity, Kidney ([5]; 60 min after injection): 2.43 (1.17) % injected dose per gram
Biodistribution of radioactivity, Liver ([5]; 2 min after injection): 6.87 (2.18) % injected dose per gram
Biodistribution of radioactivity, Liver ([5]; 10 min after injection): 5.16 (0.73) % injected dose per gram
Biodistribution of radioactivity, Liver ([5]; 30 min after injection): 2.76 (0.40) % injected dose per gram
Biodistribution of radioactivity, Liver ([5]; 60 min after injection): 1.86 (0.83) % injected dose per gram
Biodistribution of radioactivity, Lung ([5]; 2 min after injection): 6.71 (1.39) % injected dose per gram
Biodistribution of radioactivity, Lung ([5]; 10 min after injection): 1.76 (0.29) % injected dose per gram
Biodistribution of radioactivity, Lung ([5]; 30 min after injection): 0.97 (0.20) % injected dose per gram
Biodistribution of radioactivity, Lung ([5]; 60 min after injection): 0.75 (0.33) % injected dose per gram
Biodistribution of radioactivity, Pancreas ([5]; 2 min after injection): 2.83 (0.75) % injected dose per gram
Biodistribution of radioactivity, Pancreas ([5]; 10 min after injection): 0.77 (0.17) % injected dose per gram
Biodistribution of radioactivity, Pancreas ([5]; 30 min after injection): 0.29 (0.14) % injected dose per gram
Biodistribution of radioactivity, Pancreas ([5]; 60 min after injection): 0.16 (0.05) % injected dose per gram
Biodistribution of radioactivity, Spleen ([5]; 2 min after injection): 1.45 (0.56) % injected dose per gram
Biodistribution of radioactivity, Spleen ([5]; 10 min after injection): 0.74 (0.10) % injected dose per gram
Biodistribution of radioactivity, Spleen ([5]; 30 min after injection): 0.48 (0.10) % injected dose per gram
Biodistribution of radioactivity, Spleen ([5]; 60 min after injection): 0.43 (0.14) % injected dose per gram
Biodistribution of radioactivity, Stomach ([5]; 2 min after injection): 0.68 (0.33) % injected dose per organ
Biodistribution of radioactivity, Stomach ([5]; 10 min after injection): 1.06 (0.66) % injected dose per organ
Biodistribution of radioactivity, Stomach ([5]; 30 min after injection): 0.48 (0.09) % injected dose per organ
Biodistribution of radioactivity, Stomach ([5]; 60 min after injection): 0.96 (0.46) % injected dose per organ
Structure (SMILES): COc1ccc(/C=C2\Oc3ccc([125I])cc3C2=O)cc1 [[^125I]17]
